Consider 15 compounds from patent US20250235543A1, “MODIFIED PROTEINS AND PROTEIN DEGRADERS” (Cullgen (Shanghai), Inc., priority 2021, published 2025).

One assay deals with cyclin D1. The assay can be described thus: Cyclin D1 percentage degradation in Calu-1 cells (immunoblotting). It counts as cell-based. The settings on record: 16 hours. A digest of the protocol: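 Cells were rinsed once in cold PBS and lysed in cold RIPA buffer containing protease and phosphatase inhibitors, with gentle agitation at 4° C. for 30 min. Lysates were spun at 13,000 rpm for 10 min at 4° C., protein was measured by BCA, and samples were boiled in Laemmli buffer at 99° C. for 5 min before SDS-PAGE immunoblotting.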

In another assay the target is T1, CDK4 (Homo sapiens, UniProt P11802).
T1 construct: endogenous in cells; host or cells: Calu-1
The experiment in a line: CDK4 percentage degradation in Calu-1 cells (immunoblotting). The following applies: for inhibition at 0.2 µM: read-out: CDK4 Degradation (200 nM); for inhibition at 10 µM: read-out: CDK4 Degradation (10 μM). It counts as cell-based. The essentials: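 Cultured cells were rinsed once in cold PBS and lysed in cold RIPA buffer containing protease and phosphatase inhibitors, with gentle agitation at 4° C. for 30 min. Lysates were centrifuged at 13,000 rpm for 10 min at 4° C., and protein was quantified by BCA. Samples were then separated by SDS-PAGE, detected with ECL, and the CDK4 bands quantified in Image Lab.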

Where two headings read alike, the source gives them in different places.

T1 sequence (P11802 2-303 limits assumed): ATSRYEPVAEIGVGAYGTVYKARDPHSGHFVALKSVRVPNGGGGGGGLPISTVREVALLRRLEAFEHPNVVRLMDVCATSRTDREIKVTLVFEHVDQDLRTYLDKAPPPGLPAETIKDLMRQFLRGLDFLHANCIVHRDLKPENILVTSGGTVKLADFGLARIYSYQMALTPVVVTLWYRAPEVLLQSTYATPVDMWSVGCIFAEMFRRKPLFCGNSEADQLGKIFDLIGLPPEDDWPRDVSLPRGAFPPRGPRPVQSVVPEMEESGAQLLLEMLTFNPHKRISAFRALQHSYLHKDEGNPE
T1 sequence (P24385 whole entry partner): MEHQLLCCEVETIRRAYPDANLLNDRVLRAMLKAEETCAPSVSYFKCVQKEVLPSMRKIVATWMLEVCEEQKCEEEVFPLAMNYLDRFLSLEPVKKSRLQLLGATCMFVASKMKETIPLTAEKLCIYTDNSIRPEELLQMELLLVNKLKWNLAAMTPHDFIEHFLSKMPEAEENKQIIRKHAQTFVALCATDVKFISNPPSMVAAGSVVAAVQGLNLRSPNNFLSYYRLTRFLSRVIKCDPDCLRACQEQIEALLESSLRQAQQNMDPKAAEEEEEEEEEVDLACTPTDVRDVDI
T1 sequence (Q16531 2-1140 limits assumed, further chain): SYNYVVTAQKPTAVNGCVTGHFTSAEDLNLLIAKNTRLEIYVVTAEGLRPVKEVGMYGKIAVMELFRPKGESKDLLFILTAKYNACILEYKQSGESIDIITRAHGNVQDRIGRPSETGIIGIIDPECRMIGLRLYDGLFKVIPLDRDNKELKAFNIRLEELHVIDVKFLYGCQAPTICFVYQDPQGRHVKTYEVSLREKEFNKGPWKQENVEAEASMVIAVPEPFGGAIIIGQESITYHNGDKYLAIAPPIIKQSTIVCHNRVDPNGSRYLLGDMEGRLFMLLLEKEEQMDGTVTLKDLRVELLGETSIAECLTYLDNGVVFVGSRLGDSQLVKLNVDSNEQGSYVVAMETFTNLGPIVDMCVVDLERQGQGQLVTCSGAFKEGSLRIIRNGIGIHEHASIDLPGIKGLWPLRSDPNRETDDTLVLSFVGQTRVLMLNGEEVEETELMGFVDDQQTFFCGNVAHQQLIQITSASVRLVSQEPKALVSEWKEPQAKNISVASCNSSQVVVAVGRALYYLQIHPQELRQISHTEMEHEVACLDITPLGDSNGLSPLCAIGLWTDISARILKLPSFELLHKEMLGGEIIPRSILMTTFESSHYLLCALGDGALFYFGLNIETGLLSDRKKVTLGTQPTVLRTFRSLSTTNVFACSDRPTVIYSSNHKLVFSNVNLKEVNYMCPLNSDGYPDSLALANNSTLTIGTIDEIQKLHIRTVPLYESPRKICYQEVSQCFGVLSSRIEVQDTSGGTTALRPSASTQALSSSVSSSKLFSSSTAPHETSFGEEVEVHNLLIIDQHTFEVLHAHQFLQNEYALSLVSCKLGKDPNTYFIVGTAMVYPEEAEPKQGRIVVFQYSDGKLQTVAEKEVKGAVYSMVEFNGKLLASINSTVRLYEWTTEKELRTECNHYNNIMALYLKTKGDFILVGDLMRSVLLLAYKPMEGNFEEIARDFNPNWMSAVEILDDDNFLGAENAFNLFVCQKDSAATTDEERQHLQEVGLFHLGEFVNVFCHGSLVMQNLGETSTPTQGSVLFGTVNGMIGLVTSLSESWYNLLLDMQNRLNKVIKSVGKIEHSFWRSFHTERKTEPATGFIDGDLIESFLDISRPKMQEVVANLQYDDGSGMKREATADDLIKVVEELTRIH

With `CC(=O)c1c(C)c2cnc(Nc3ccc(N4CCN(CCCCCCCC(=O)Nc5ccccc5C(=O)Nc5ccc(C)cn5)CC4)cn3)nc2n(C2CCCC2)c1=O` [CPD-183, 2-(8-(4-(6-((6-Acetyl-8-cyclopentyl-5-methyl-7-oxo-7,8-dihydropyrido[2,3-d]pyrimidin-2-yl)amino)pyridin-3-yl)piperazin-1-yl)octanamido)-N-(5-methylpyridin-2-yl)benzamide], in the assay on cyclin D1, the “CyclinD1 Degradation (200 nM)” value is “D (protein percentage degradation <30%)”. For the same compound, the inhibition at 0.2 µM on CDK4 (Calu-1, 16 h) is under 30%.

Consider `CC(=O)c1c(C)c2cnc(Nc3ccc(N4CCN(CC(=O)NCCOCCOCCC(=O)Nc5ccccc5C(=O)Nc5ccc(C6CC6)cn5)CC4)cn3)nc2n(C2CCCC2)c1=O` [CPD-184, 2-(3-(2-(2-(2-(4-(6-((6-Acetyl-8-cyclopentyl-5-methyl-7-oxo-7,8-dihydropyrido[2,3-d]pyrimidin-2-yl)amino)pyridin-3-yl)piperazin-1-yl)acetamido)ethoxy)ethoxy)propanamido)-N-(5-cyclopropylpyridin-2-yl)benzamide], for which the “CyclinD1 Degradation (200 nM)” value in the assay with cyclin D1 is on record as “A (protein percentage degradation >=80%)”. For the same compound, the inhibition at 0.2 µM on CDK4 (Calu-1 cells, 200 nM, 16 hours) was in the range of 50 to 80%.

Regarding `CC(=O)c1c(C)c2cnc(Nc3ccc(N4CCN(CC(=O)NCCOCCOCCC(=O)Nc5ccccc5C(=O)Nc5ccc(N(C)C)nn5)CC4)cn3)nc2n(C2CCCC2)c1=O` [CPD-185, 2-(3-(2-(2-(2-(4-(6-((6-Acetyl-8-cyclopentyl-5-methyl-7-oxo-7,8-dihydropyrido[2,3-d]pyrimidin-2-yl)amino)pyridin-3-yl)piperazin-1-yl)acetamido)ethoxy)ethoxy)propanamido)-N-(6-(dimethylamino)pyridazin-3-yl)benzamide], the “CyclinD1 Degradation (200 nM)” value in the assay on cyclin D1 is “A (protein percentage degradation >=80%)”. In addition, the inhibition at 0.2 µM on CDK4 (Calu-1 cells, 200 nM, 16 hours) is over 80%.

Regarding `CC(=O)c1c(C)c2cnc(Nc3ccc(N4CCN(CC(=O)NCCOCCOCCC(=O)Nc5ccccc5C(=O)Nc5cnc(C)nc5)CC4)cn3)nc2n(C2CCCC2)c1=O` [CPD-186, 2-(3-(2-(2-(2-(4-(6-((6-Acetyl-8-cyclopentyl-5-methyl-7-oxo-7,8-dihydropyrido[2,3-d]pyrimidin-2-yl)amino)pyridin-3-yl)piperazin-1-yl)acetamido)ethoxy)ethoxy)propanamido)-N-(2-methylpyrimidin-5-yl)benzamide], the “CyclinD1 Degradation (200 nM)” value in the assay on cyclin D1 is “B (protein percentage degradation <80%, and >=50%)”. For the same compound, the inhibition at 0.2 µM at CDK4 (Calu-1 cells, 200 nM, 16 hours) lay within 50 to 80%.

For `CC(=O)c1c(C)c2cnc(Nc3ccc(N4CCN(CCNCCOCCOCCC(=O)Nc5ccccc5C(=O)Nc5nc(C)c(C)s5)CC4)cn3)nc2n(C2CCCC2)c1=O` [CPD-187, 2-(3-(2-(2-((2-(4-(6-((6-Acetyl-8-cyclopentyl-5-methyl-7-oxo-7,8-dihydropyrido[2,3-d]pyrimidin-2-yl)amino)pyridin-3-yl)piperazin-1-yl)ethyl)amino)ethoxy)ethoxy)propanamido)-N-(4,5-dimethylthiazol-2-yl)benzamide], in the assay with cyclin D1, the “CyclinD1 Degradation (200 nM)” value is “D (protein percentage degradation <30%)”. Further, at CDK4 (Calu-1, 16 h), the inhibition at 0.2 µM was under 30%.

For the compound `CC(=O)c1c(C)c2cnc(Nc3ccc(N4CCN(CCNCCCCCCCNc5cccc(C(=O)Nc6nc(C)c(C)s6)c5C)CC4)cn3)nc2n(C2CCCC2)c1=O` [CPD-188, 3-((7-((2-(4-(6-((6-Acetyl-8-cyclopentyl-5-methyl-7-oxo-7,8-dihydropyrido[2,3-d]pyrimidin-2-yl)amino)pyridin-3-yl)piperazin-1-yl)ethyl)amino)heptyl)amino)-N-(4,5-dimethylthiazol-2-yl)-2-methylbenzamide], the “CyclinD1 Degradation (200 nM)” value with cyclin D1 was “D (protein percentage degradation <30%)”. Also, the inhibition at 0.2 µM on CDK4 (Calu-1, 16 h) was under 30%.

For `CC(=O)c1c(C)c2cnc(Nc3ccc(N4CCN(CC(=O)NCCOCCOCCCNc5ccccc5C(=O)Nc5nc(C)c(C)s5)CC4)cn3)nc2n(C2CCCC2)c1=O` [CPD-267, 2-((3-(2-(2-(2-(4-(6-((6-Acetyl-8-cyclopentyl-5-methyl-7-oxo-7,8-dihydropyrido[2,3-d]pyrimidin-2-yl)amino)pyridin-3-yl)piperazin-1-yl)acetamido)ethoxy)ethoxy)propyl)amino)-N-(4,5-dimethylthiazol-2-yl)benzamide], the “CyclinD1 Degradation (200 nM)” value in the assay with cyclin D1 is “A (protein percentage degradation >=80%)”. The inhibition at 0.2 µM on CDK4 (Calu-1 cells, 200 nM, 16 hours) was in the range of 50 to 80%.

For the compound `CC(=O)c1c(C)c2cnc(Nc3ccc(N4CCN(CC(=O)NCCCCCCCCCNc5ccccc5C(=O)Nc5nc(C)c(C)s5)CC4)cn3)nc2n(C2CCCC2)c1=O` [CPD-268, 2-((9-(2-(4-(6-((6-Acetyl-8-cyclopentyl-5-methyl-7-oxo-7,8-dihydropyrido[2,3-d]pyrimidin-2-yl)amino)pyridin-3-yl)piperazin-1-yl)acetamido)nonyl)amino)-N-(4,5-dimethylthiazol-2-yl)benzamide], the “CyclinD1 Degradation (200 nM)” value in the assay on cyclin D1 was “A (protein percentage degradation >=80%)”. Besides, the inhibition at 0.2 µM at CDK4 (Calu-1 cells, 200 nM, 16 hours) lay in the range of 50 to 80%.

`CC(=O)c1c(C)c2cnc(Nc3ccc(N4CCN(CC(=O)NCCCCC(=O)Nc5ccccc5C(=O)Nc5ccc(C)cn5)CC4)cn3)nc2n(C2CCCC2)c1=O` [CPD-269, 2-(5-(2-(4-(6-((6-Acetyl-8-cyclopentyl-5-methyl-7-oxo-7,8-dihydropyrido[2,3-d]pyrimidin-2-yl)amino)pyridin-3-yl)piperazin-1-yl)acetamido)pentanamido)-N-(5-methylpyridin-2-yl)benzamide]: the “CyclinD1 Degradation (200 nM)” value in the assay with cyclin D1 is “B (protein percentage degradation <80%, and >=50%)”. Besides, on CDK4 (Calu-1 cells, 200 nM, 16 hours), the inhibition at 0.2 µM lay within 50 to 80%.

Consider `CC(=O)c1c(C)c2cnc(Nc3ccc(N4CCN(CC(=O)NCCOCCOCCC(=O)Nc5ccccc5C(=O)Nc5ccc(C)c(C6CC6)n5)CC4)cn3)nc2n(C2CCCC2)c1=O` [CPD-270, 2-(3-(2-(2-(2-(4-(6-((6-Acetyl-8-cyclopentyl-5-methyl-7-oxo-7,8-dihydropyrido[2,3-d]pyrimidin-2-yl)amino)pyridin-3-yl)piperazin-1-yl)acetamido)ethoxy)ethoxy)propanamido)-N-(6-cyclopropyl-5-methylpyridin-2-yl)benzamide], for which the “CyclinD1 Degradation (200 nM)” value with cyclin D1 is recorded as “A (protein percentage degradation >=80%)”. Moreover, the inhibition at 0.2 µM on CDK4 (Calu-1 cells, 200 nM, 16 hours) lay within 50 to 80%.

`CC(=O)c1c(C)c2cnc(Nc3ccc(N4CCN(CCCCCOCCOCCNc5cccc(C(=O)Nc6nc(C)c(C)s6)c5C)CC4)cn3)nc2n(C2CCCC2)c1=O` [CPD-271, 3-((2-(2-((5-(4-(6-((6-Acetyl-8-cyclopentyl-5-methyl-7-oxo-7,8-dihydropyrido[2,3-d]pyrimidin-2-yl)amino)pyridin-3-yl)piperazin-1-yl)pentyl)oxy)ethoxy)ethyl)amino)-N-(4,5-dimethylthiazol-2-yl)-2-methylbenzamide]: the “CyclinD1 Degradation (200 nM)” value in the assay with cyclin D1 is recorded as “D (protein percentage degradation <30%)”. Further, the inhibition at 0.2 µM at CDK4 (Calu-1, 16 h) was under 30%.

Consider `Cc1nc(NC(=O)c2ccccc2NC(=O)CNC(=O)CN2CCN(Cc3ccc(Nc4ncc(F)c(-c5cc(F)c6nc(C)n(C(C)C)c6c5)n4)nc3)CC2)sc1C` [CPD-272, N-(4,5-Dimethylthiazol-2-yl)-2-(2-(2-(4-((6-((5-fluoro-4-(4-fluoro-1-isopropyl-2-methyl-1H-benzo[d]imidazol-6-yl)pyrimidin-2-yl)amino)pyridin-3-yl)methyl)piperazin-1-yl)acetamido)acetamido)benzamide], for which the “CyclinD1 Degradation (10 μM)” value in the assay on cyclin D1 is reported as “D (protein percentage degradation < 30%)”. Besides, on CDK4 (Calu-1 cells, 16 hours), the inhibition at 10 µM is under 30%.

As for `Cc1nc(NC(=O)c2ccccc2NC(=O)CCNC(=O)CN2CCN(Cc3ccc(Nc4ncc(F)c(-c5cc(F)c6nc(C)n(C(C)C)c6c5)n4)nc3)CC2)sc1C` [CPD-273, N-(4,5-Dimethylthiazol-2-yl)-2-(3-(2-(4-((6-((5-fluoro-4-(4-fluoro-1-isopropyl-2-methyl-1H-benzo[d]imidazol-6-yl)pyrimidin-2-yl)amino)pyridin-3-yl)methyl)piperazin-1-yl)acetamido)propanamido)benzamide], in the assay on cyclin D1, the “CyclinD1 Degradation (10 μM)” value is “D (protein percentage degradation < 30%)”. Further, the inhibition at 10 µM at CDK4 (Calu-1 cells, 16 hours) is under 30%.

Take `Cc1nc(NC(=O)c2ccccc2NC(=O)CCCNC(=O)CN2CCN(Cc3ccc(Nc4ncc(F)c(-c5cc(F)c6nc(C)n(C(C)C)c6c5)n4)nc3)CC2)sc1C` [CPD-274, N-(4,5-Dimethylthiazol-2-yl)-2-(4-(2-(4-((6-((5-fluoro-4-(4-fluoro-1-isopropyl-2-methyl-1H-benzo[d]imidazol-6-yl)pyrimidin-2-yl)amino)pyridin-3-yl)methyl)piperazin-1-yl)acetamido)butanamido)benzamide]: in the assay with cyclin D1, the “CyclinD1 Degradation (10 μM)” value is “B (protein percentage degradation < 80%, and >= 50%)”. Moreover, the inhibition at 10 µM on CDK4 (Calu-1 cells, 16 hours) was under 30%.

Take `Cc1nc(NC(=O)c2ccccc2NC(=O)CCCCNC(=O)CN2CCN(Cc3ccc(Nc4ncc(F)c(-c5cc(F)c6nc(C)n(C(C)C)c6c5)n4)nc3)CC2)sc1C` [CPD-275, N-(4,5-Dimethylthiazol-2-yl)-2-(5-(2-(4-((6-((5-fluoro-4-(4-fluoro-1-isopropyl-2-methyl-1H-benzo[d]imidazol-6-yl)pyrimidin-2-yl)amino)pyridin-3-yl)methyl)piperazin-1-yl)acetamido)pentanamido)benzamide]: the “CyclinD1 Degradation (10 μM)” value with cyclin D1 is “D (protein percentage degradation < 30%)”. On CDK4 (Calu-1 cells, 16 hours), the inhibition at 10 µM was under 30%.
